The values that follow come from patent US9598463B2, “Mucin hypersecretion inhibitors and methods of use” (BIOMARCK PHARMACEUTICALS, LTD., priority 2005, dated 2017).

Where two headings read alike, the source gives them in different places.

The solubility is the concentration that dissolves in the medium under given conditions. A higher solubility goes with much dissolved substance.

The nature of series [1]: Stability of test peptides in human plasma (LC/MS/MS, first order half-life). It counts as in vitro ADME. The note with it: human plasma, 37° C. As for the experimental part:
Various test peptides in human plasma, human BALF, and CF patient mucus were analyzed to determine the susceptability of the test peptide to proteolysis in the biological fluids. […] The samples were analyzed either on the same day as received or stored at −20° C. and analyzed within the following two days.
Fresh human blood samples were collected in citrate buffered vacuutrainers (in absence of EDTA or heparin). Red blood cells (RBC) were removed by centrifugation of the blood at 4000×g for 10 min at 4° C. Plasma aliquots (0.9 mL) were then spiked with 0.1 mL of 0.5 mg/mL solution of the test peptide in 75 mM sodium acetate buffer at pH 7.0 and incubated in a water bath maintained at 37° C. Duplicate aliquots of 10 μL, were withdrawn at 5, 15, 30, 60, and 180 minutes intervals and immediately “quenched” with 990 μL of a solution consisting of 50% acetonitrile+50% water containing 0.2% formic acid. The samples were then subjected to liquid chromatography-mass spectrometry (LCMS) analysis.
All samples were analyzed using LC/MS/MS (MDS/SCIEX, API 4000 Model). Chromatography was performed using a Phenomenex Luna C18 column, while mass spectrometry was performed using positive ion electrospray ionization.
Calibration standards were analyzed by LCMS at concentrations of 0.100 μg/mL, 1.00 μg/mL, 10.0 μg/mL, and 100 μg/mL for each peptide, with the exception of the calibration standards for peptides myr-PEPTIDE 106, PEPTIDE 106, PEPTIDE 106-NH2, PEPTIDE 106, and cyclic peptide, cyc-PEPTIDE 106, in human mucus, which were analyzed at concentrations of 0.100 μg/mL, 1.00 μg/mL, 10.0 μg/mL, and 75 μg/mL. Standards were prepared in 1% human BALF, plasma, or mucus in 50/50 water/acetonitrile mixture containing 0.2% formic acid. The instrument response values for each set of standards were fit using a 1/(concentration)^2 linear least-squares line. Sample concentrations were calculated using the slope and intercept of this line. Concentrations outside of the calibration range were determined by extrapolating the calibration curve. […]
For the analysis of peptide concentration in plasma, duplicate calibration standards were analyzed at a concentration of 25 μg/mL and 50 μg/mL for each peptide. The instrument response values for each set of standards were fit through an intercept of 0 using an unweighted, linear least-squares line. Sample concentrations were calculated using the slope and intercept of this line. Concentrations outside of the calibration range were determined by extrapolating the calibration curve.
Watson fits the log transformed data with a least-squares line to determine parameters such as Cmax (maximum concentration), intercept, rate constant, slope, and T1/2 (half-life). The resulting kinetic parameters were based on the linear fit, not the actual concentration values.
Time-zero calibration standards in solution were not included as part of the kinetic profiles.

The test system of series [2] is HBE1 cells. The series can be described thus: PMA-induced mucin hypersecretion in human bronchial epithelial cells (air/liquid interface, MUC5A ELISA). It counts as cell-based. The note with it: pretreatment with 25 μM peptide, then 0.5 μM PMA. As for the experimental part: HBE1 is a papilloma virus-transformed human bronchial epithelial cell line capable of mucin secretion when cultured in air/liquid interface. HBE1 cells were cultured in the air/liquid interface as described previously (Li et al, J. Biol. Chem., volume 276, pp 40982-40990, 2001). Briefly, HBE1 cells were cultured in air/liquid interface by seeding an appropriate number of cells in 12-well Transwell clear culture inserts (Costar, Cambridge, Mass.) that were thinly coated with rat tail collagen, type I (Collaborative Biomedical, Bedford, Mass.). Cells were initially cultured submerged in medium in a humidified 95% air, 5% CO2 environment for 5-7 days until nearly confluent. At that time, the air/liquid interface was created by removing the apical medium and feeding cells basalaterally. Medium was renewed daily thereafter. Cells were cultured for an additional 14 days to allow full differentiation. The accumulated mucin at the apical surface of the cells was removed by washing with phosphate-buffered saline, pH 7.2. To collect the baseline mucin secretion, cells were incubated for 30 min with medium alone and secreted mucin in the apical medium was collected, and quantitated by ELISA. To determine the mucin hypersecretion induced by a mucin secretagogue, cells were exposed to medium containing 0.5 μM phorbol myristate acetate, (PMA) for 30 min. and mucin was collected and quantitated by ELISA. […] Six wells were used for each test peptides and for each control. Secreted mucin in the apical medium was collected and quantitated by sandwich ELISA method using alkaline phosphatase-conjugated mucin (MUC5A) specific antibody (Zymed Laboratories, San Francisco, Calif.).
A general note: ELISA stands for enzyme-linked immunosorbent assay.

The test system of series [3] is ATP-induced mucin hypersecretion. Kind of series: Aerosolized Ac-peptide 106 on ATP-induced mucin hypersecretion in mouse model with goblet cell metaplasia. Conditions: aerosol. It counts as in vivo, BALB/c mice. As for the experimental part: The efficacy of aerosolized Ac-peptide 106 on mucin hypersecretion in a mouse model of asthma was determined at two concentrations. Briefly, 5- to 8 week old BALB/c mice were immunized weekly as described above in Example 1A for 3 weeks with ovalbumin. On Day 28 the mice were challenged with aerosolized 2.5% ovalbumin in normal saline for 30 minutes. Three days after ovalbumin challenge, each group of mice (n=2) was administered an aerosolized isotonic solution of Ac-peptide 106 at […] or 30 mM for 1 hour with an AeroMist CA-209 nebulizer. The mass median aerodynamic diameter of the aerosol particles was 1.49 um (range 0.4 to 4.7 urn). Given these concentrations of Ac-peptide 106 and this particle size, the calculated pulmonary deposition of Ac-peptide 106 was 0.38 mg/kg body weight and 1.1 mg/kg body weight, respectively.
Ac-peptide 106 administration was immediately followed by aerosol administration of the secretagogue adenosine triphosphate (ATP) ([…] in saline) for 5 minutes. The mice were sacrificed, and the lungs were harvested within 20 minutes. The lungs were rinsed with saline, fixed with paraformaldehyde, embedded in paraffin, and sectioned. The sections were quantitatively analyzed for the presence of mucin by quantitative immunohistochemistry according to the method of Evans et al. (Am. J. Respir. Cell Mol. Biol. Vol. 31, pp 382-394, 2004).

A short description of series [4]: Qualitative solubility of test peptides in 0.5 N saline. In kind it is physicochemical. Conditions: pH 6.5, 20° C. (table title). In short, it runs like this:
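Weighed peptide (1 to 5 mg) titrated with 25 μL aliquots of 0.5 N saline, pH 6.5, at 25° C until dissolution judged visually. Solubility calculated from volume needed; complete dissolution in first aliquot reported as greater than, non-dissolution as less than, the calculated value.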

Where [5] appears, read: 2nd experiment, read-out: Plasma t1/2 (2nd exp.) (converted).

For the substance Ac-GAQFSKTAAK-OH [Ac-peptide 106], in series [1] (setting [5]), the half-life is 1.8 min. Also, the “Block of PMA-induced increase in mucin secretion” value in series [2] turned out to be 100%. The “Inhibition of ATP-induced mucin hypersecretion” value is on record as 30% in series [3] (calculated pulmonary deposition 0.38 mg/kg body weight) and 67% in series [3] (calculated pulmonary deposition 1.1 mg/kg body weight). Besides, the solubility in series [4] was greater than 100 mg/mL.

For “H-GAQFSKTAAK-OH [peptide 106, GAQFSKTAAK]”, the half-life in series [1] (1st experiment, read-out: Plasma t1/2 (1st exp.) (converted)) is 16.8 min; in series [1] (setting [5]), 9 min. In addition, the solubility in series [4] is greater than 70 mg/mL.
